Measured values from article PMC7450630 (ACS Omega, 2020).

Biological target: PD-L1 (Homo sapiens, UniProt Q9NZQ7)
Assay: HTRF PD-1/PD-L1 binding assay

Sequence of PD-L1 (Q15116 25-288): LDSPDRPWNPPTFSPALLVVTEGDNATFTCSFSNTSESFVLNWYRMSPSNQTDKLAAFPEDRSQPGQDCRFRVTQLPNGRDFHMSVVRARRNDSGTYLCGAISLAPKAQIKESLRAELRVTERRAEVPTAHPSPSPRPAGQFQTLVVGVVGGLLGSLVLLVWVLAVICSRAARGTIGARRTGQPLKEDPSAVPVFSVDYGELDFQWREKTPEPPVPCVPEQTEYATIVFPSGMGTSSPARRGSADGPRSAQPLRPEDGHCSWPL
Sequence of PD-L1 (Q9NZQ7 19-290): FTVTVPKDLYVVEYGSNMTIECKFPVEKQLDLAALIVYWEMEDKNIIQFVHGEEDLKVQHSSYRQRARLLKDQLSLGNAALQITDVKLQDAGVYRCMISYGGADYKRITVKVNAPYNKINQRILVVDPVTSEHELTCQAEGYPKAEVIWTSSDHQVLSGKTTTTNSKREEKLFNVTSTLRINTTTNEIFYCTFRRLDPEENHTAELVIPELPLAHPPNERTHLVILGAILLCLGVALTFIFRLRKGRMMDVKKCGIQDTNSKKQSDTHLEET

An IC50 of 14.1 µM was found for `Cc1c(COc2ccc(CN3CCN(C)CC3)c(OCc3cn(-c4cccc(C#N)c4)nn3)c2)cccc1-c1ccccc1` [8a, 3-(4-((5-((2-Methylbiphenyl-3-yl)methoxy)-2-((4-methylpiperazin-1yl)methyl)phenoxy)methyl)-1H-1,2,3-triazol-1-yl)benzonitrile] in this work.
An IC50 of 8.52 µM was found for `Cc1c(COc2ccc(CN3CCNCC3)c(OCc3cn(-c4cccc(C#N)c4)nn3)c2)cccc1-c1ccccc1` [compound 7, 3-(4-((5-((2-Methylbiphenyl-3-yl)methoxy)-2-(piperazin-1-ylmethyl)phenoxy)methyl)-1H-1,2,3-triazol-1-yl)benzonitrile] in this work.
